Where two headings read alike, the source gives them in different places.
Legend:
Assay type in all cases: in vivo
[1] = tested on: Pseudoperonospora cubensis (downy mildew); assay: Test 1 greenhouse foliar spray screen, downy mildew on squash; conditions: for DOWN MDEW: disease control rating, foliar spray on squash, 400 ppm (+++ at 100 ppm)
[2] = tested on: Septoria tritici (leaf blotch); assay: Test 1 greenhouse foliar spray screen, leaf blotch on wheat; conditions: for LEAF BLOT: disease control rating, foliar spray on wheat, 400 ppm (+++ at 100 ppm)
[3] = tested on: Cercospora beticola (leaf spot); assay: Test 1 greenhouse foliar spray screen, leaf spot on sugar beet; conditions: for LEAF SPOT: disease control rating, foliar spray on sugar beet, 400 ppm (+++ at 100 ppm)
[4] = tested on: Botrytis cinerea (gray mold); assay: Test 1 greenhouse foliar spray screen, gray mold on grape berries; conditions: for GRAY MOLD: disease control rating, spray on grape berries, 400 ppm (+++ at 100 ppm)
[5] = tested on: southern armyworm (Spodopetra eridania Cramer); assay: Mite/insect screen, SAW; conditions: Spodoptera eridania, percent mortality, read-out: SAW RESULTS %; for mortality at 400 ppm: SM & MA RATE 400 PPM
Summary of the method: (§1)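 Read-out: percent mortality after standard exposure periods. Test solutions were water dilutions of compound dissolved in acetone/alcohol (50:50) with emulsifier blends; leaves were sprayed to runoff on both surfaces and air-dried for one hour before exposure.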

[6] = tested on: melon aphids (Aphis gossypii Glover); assay: Mite/insect screen, MA; conditions: Aphis gossypii, percent mortality, read-out: MA RESULTS %; for mortality at 400 ppm: SM & MA RATE 400 PPM
Summary of the method: as §1

[7] = tested on: Erysiphe graminis tritici (powdery mildew); assay: Test 1 greenhouse foliar spray screen, powdery mildew on wheat; conditions: for POWD MDEW: disease control rating, foliar spray on wheat, 400 ppm (+++ at 100 ppm)
[8] = tested on: Venturia inaequalis (apple scab); assay: Test 1 greenhouse foliar spray screen, apple scab on apple seedling; conditions: for APPL SCAB: disease control rating, foliar spray on apple seedling, 400 ppm (+++ at 100 ppm)
[9] = tested on: Twospotted spider mites (Tetranychus urticae Koch); assay: Mite/insect screen, SM; conditions: Tetranychus urticae, percent mortality, read-out: SM RESULTS %; for mortality at 400 ppm: SM & MA RATE 400 PPM
Summary of the method: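 Foliar spray to runoff (10 psi), 1 h drying; aqueous dilutions from acetone/alcohol emulsifier stock. Mortality (%) after standard exposure.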

[10] = tested on: Pyricularia oryzae (rice blast); assay: whole plant or invertebrate; conditions: for RICE BLAST: disease control rating, foliar spray on rice, 400 ppm (+++ at 100 ppm)
[11] = tested on: Puccinia recondita tritici (leaf rust); assay: Test 1 greenhouse foliar spray screen, leaf rust on wheat; conditions: for LEAF RUST: disease control rating, foliar spray on wheat, 400 ppm (+++ at 100 ppm)
corn rootworm = assay: Mite/insect screen, CRW; conditions: percent mortality, read-out: CRW RESULTS %; for mortality at 24 ppm: CRW RATE 24.00 PPM
Summary of the method: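 Read-out: % mortality after standard exposure. Formulation: acetone/alcohol (50:50) with emulsifiers at 23 g and 13 g per liter, water-diluted to final test levels.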

[12] = foliar, rate 200 ppm, foliar spray on squash

SMILES	DOWN MDEW [1]	LEAF BLOT [2]	LEAF SPOT [3]	GRAY MOLD [4]	mortality at 200 ppm ([5]; SAW, SM & MA RATE 200 PPM) [%]	mortality at 400 ppm ([5]; SAW) [%]	mortality at 200 ppm ([6]; SAW, SM & MA RATE 200 PPM) [%]	mortality at 400 ppm ([6]; SAW) [%]	POWD MDEW [7]	APPL SCAB [8]	mortality at 200 ppm ([9]; SAW, SM & MA RATE 200 PPM) [%]	mortality at 400 ppm ([9]; SAW) [%]	RICE BLAST [10]	LEAF RUST [11]	mortality at 12 ppm (corn rootworm; CRW RATE 12.00 PPM) [%]	mortality at 24 ppm (corn rootworm) [%]	other results
COc1ccc2nccc(NCCc3ccc(Cl)cc3)c2c1 [Example 16, N-[2-(4-chlorophenyl)ethyl]-6-methoxy-4-quinolinamine]	+++ (90-100% control at 100 ppm)	- (0-19% control at 400 ppm)	+++ (90-100% control at 100 ppm)	- (0-19% control at 400 ppm)	0	0	0	0	- (0-19% control at 400 ppm)	- (0-19% control at 400 ppm)	0	0	+ (20-89% control at 400 ppm)	+ (20-89% control at 400 ppm)	0	0	
Cc1cc(C)c2nccc(NCCc3ccc(Cl)cc3)c2c1 [Example 15, N-[2-(4-chlorophenyl)ethyl]-6,8-dimethyl-4-quinolinamine]	+++ (90-100% control at 100 ppm)	- (0-19% control at 400 ppm)	+++ (90-100% control at 100 ppm)	- (0-19% control at 400 ppm)	0	0	0	0	- (0-19% control at 400 ppm)	+ (20-89% control at 400 ppm)	0	0	+ (20-89% control at 400 ppm)	+ (20-89% control at 400 ppm)	0	0	
FC(F)(F)c1cccc2c(NCCc3ccc(Br)cc3)ccnc12 [Example 13, N-[2-(4-bromophenyl)ethyl]-8-(trifluoromethyl)-4-quinolinamine]	++ (90-100% control at 400 ppm)	- (0-19% control at 400 ppm)	- (0-19% control at 400 ppm)	- (0-19% control at 400 ppm)	0	0	0	0	- (0-19% control at 400 ppm)	- (0-19% control at 400 ppm)	0	0	++ (90-100% control at 400 ppm)	++ (90-100% control at 400 ppm)	0	0	
Clc1ccc(CCOc2ccnc3ccccc23)cc1 [Example 211, 4-[2-(4-chlorophenyl)ethoxy]quinoline]																	pest or weed control at 400 ppm ([1]; Pseudoperonospora cubensis, foliar, Test 1, foliar spray on squash, disease control rating at 400 ppm / 100 ppm, read-out: DOWN MDEW): 90 to 100%; pest or weed control at 400 ppm ([2]; Zymoseptoria tritici, Test 1, foliar spray on wheat, disease control rating at 400 ppm / 100 ppm, read-out: LEAF BLOT): 90 to 100%; pest or weed control at 400 ppm ([3]; Cercospora beticola, Test 1, foliar spray on sugar beet, disease control rating at 400 ppm / 100 ppm): 90 to 100%; pest or weed control at 400 ppm ([4]; Botrytis cinerea, foliar, Test 1, spray on grape berries, disease control rating at 400 ppm / 100 ppm): 0 to 19%; mortality at 200 ppm [5, 12]: 0%; mortality at 200 ppm [6, 12]: 40%; pest or weed control at 400 ppm ([7]; Blumeria graminis, foliar, Test 1, foliar spray on wheat, disease control rating at 400 ppm / 100 ppm, read-out: POWD MDEW): 90 to 100%; pest or weed control at 400 ppm ([8]; Venturia inaequalis, Test 1, foliar spray on apple seedling, disease control rating at 400 ppm / 100 ppm, read-out: APPL SCAB): 0 to 19%; mortality at 200 ppm [9, 12]: 10%; pest or weed control at 400 ppm ([10]; Pyricularia oryzae, foliar, read-out: RICE BLAST, Test 1, foliar spray on rice, disease control rating at 400 ppm / 100 ppm): 90 to 100%; pest or weed control at 400 ppm ([11]; Puccinia recondita, foliar, Test 1, foliar spray on wheat, disease control rating at 400 ppm / 100 ppm): 90 to 100%; mortality at 12 ppm (corn rootworm; CRW rate 12.00 ppm): 0%
